# Data from patent US20220160712A1, “METHODS OF TREATING RHEUMATOID ARTHRITIS AND FOR PREDICTING THE RESPONSE TO METHOTREXATE” (CHAN ZUCKERBERG BIOHUB, INC., priority 2020, published 2022).
# Key:
# gut microbiome = assay: RA patients on oral MTX: 16S-seq and metagenomic sequencing of stool at baseline and 1 month; clinical response; format: in vivo, human; conditions: for number of gene families differentially abundant over time: metagenomic sequencing n=17
# Method: Consecutive patients from the New York University Langone Medical Center's rheumatology clinics and offices were screened for the presence of RA based on ACR criteria (Aletaha et al., 2010). After informed consent was signed, each patient's medical history (according to chart review and interview/questionnaire), diet, and medications were determined. A screening musculoskeletal examination and laboratory assessments were also performed or reviewed. All RA patients who met the study criteria were offered enrollment. The criteria for inclusion in the study required that patients meet the American College of Rheumatology/European League Against Rheumatism 2010 classification criteria for RA (Aletaha et al., 2010), including seropositivity for rheumatoid factor and/or anti-citrullinated protein antibodies, and that all subjects be age 18 years or older. New-onset RA was defined as disease duration of a minimum of 6 weeks and up to 6 months since diagnosis, and absence of any treatment with disease-modifying anti-rheumatic drugs, biologic therapy or steroids (ever). The exclusion criteria applied to all groups were as follows: recent (<3 months prior) use of any antibiotic therapy, current extreme diet (e.g., parenteral nutrition or macrobiotic diet), known inflammatory bowel disease, known history of malignancy, current consumption of probiotics, any gastrointestinal tract surgery leaving permanent residua (e.g., gastrectomy, bariatric surgery, colectomy), or significant liver, renal, or peptic ulcer disease. This study was approved by the Institutional Review Board of New York University School of Medicine protocols #09-0658 and as previously published (Scher et al., 2013). All new onset rheumatoid arthritis (NORA) patients were recruited using established protocols from a previously described study (Scher et al., 2013). Patients received oral MTX at standard of care doses as prescribed by their treating rheumatologists. Stool samples were collected at baseline and 1 month after MTX initiation and metadata were obtained at baseline and 4 months after therapy initiation. Clinical and demographic data was de-identified and recorded in RedCap by the designated study personnel. Clinical responder status (MTX-R) was defined a priori as any NORA patient whose DAS28 score was greater than 2 at baseline and improved by at least 1.8 by month 4 post-treatment. DNA was extracted from human fecal samples (n=23 patients, 46 stool samples) as previously described (Scher et al., 2013), using the MoBio Powersoil DNA extraction kit, based on cell membrane disruption by high-speed shaking in the presence of beads. The V4 hypervariable region of bacterial 16S ribosomal RNA (rRNA) was performed using a MiSeq […] platform (150-bp read length, paired-end protocol) at the New York University Genome Technology Center as previously described (Manasson et al., 2018). For each sample, fastq files are available in NCBI's Sequence Read Archive (SRA), accession number PRJNA656577.
# Stool samples from 17 RA patients underwent DNA extraction using ZymoBIOMICS 96 MagBead DNA Kit (Cat #D4302) as per the manufacturer's protocol. Sequencing libraries were generated using the Nextera DNA Flex Library Kit (Illumina, #20018705) and Nextera Compatible Unique Dual Indices—Set A primers (Illumina, #20027213). Library concentrations were normalized using PicoGreen (Quant-It dsDNA; Life Technologies) and pooled for sequencing on the NovaSeq using S1 or S2 platform at the Chan Zuckerberg Biohub.
# Reads that were not already demultiplexed were demultiplexed using QIIME (Caporaso et al., 2010) v1.9.1 (split_libraries_fastq.py). For all reads except NYU RA patient samples, QIIME2 (Bolyen et al., 2019)(v 2020.2) was used to trim reads, denoise the data, and create a feature table using the following commands: qiime cutadapt trim-paired, qiime dada2 denoise-paired, qiime feature-table filter-samples. […]
# [1] = newly diagnosed RA patients; cited from earlier work
compound,measurement,setting,value
"CN(Cc1cnc2nc(N)nc(N)c2n1)c1ccc(C(=O)N[C@@H](CCC(=O)O)C(=O)O)cc1 [MTX, methotrexate]",number of MTX responders (MTX-R),"gut microbiome; 23 RA patients, decrease in DAS28 of ≥1.8 and continued oral MTX without added DMARDs or biologics",8
same,number of MTX non-responders (MTX-NR),"gut microbiome; 23 RA patients, same response definition",15
same,number of KOs with significant differences in abundance,"gut microbiome; MTX-NR, q<0.25, MaAsLin2",5
same,number of gene families with significant differences in abundance,"gut microbiome; MTX-NR, q<0.25, MaAsLin2",508
same,number of gene families with significant shift,"gut microbiome; MTX-R, q<0.25, MaAsLin2",2
same,change in Bacteroidetes over time in MTX-R relative to MTX-NR,"gut microbiome; baseline vs 1 month, Wilcoxon rank-sum",significant decrease
same,"richness, community structure, abundance of bacterial phyla, genera, or ASVs, pre- vs. post MTX","gut microbiome; entire cohort n=23, baseline vs 1 month, oral MTX standard of care",no significant differences
same,number of gene families differentially abundant over time,gut microbiome; MaAsLin2 q-value<0.25,96
same,number of gene families differentially abundant over time,gut microbiome; nominal p-value<0.05,"6,409"
same,number of KEGG orthologs (KOs) differentially abundant,gut microbiome; nominal p<0.05,334
same,number of KEGG orthologs (KOs) differentially abundant,gut microbiome; q<0.25,5
same,patients with a robust response without escalation of therapy,[1],~33%
